Reference: patent US5424456A, “N-arylalkylderivatives of 2-aminomethyl-2,3-dihydro-1,4-benzodioxine and the process of preparation thereof” (Vyzkumny Ustav Pro Farmacii A Biochemii s.p., priority 1991, dated 1995)

Tests used:
α-adrenergic [1] = target: T1, α-adrenergic (Rattus norvegicus, UniProt P23944); experiment: α-adrenergic blocking activity, norepinephrine-induced contraction of helically cut rat aortic strip; details: 37° C., cumulative doses, read-out: IC50 (concentration causing 50% relaxation)
T1 construct: helically cut rat aortic strip; from tissue; host or cells: rat aorta (helically cut strip)
T1 sequence (P23944 1-561): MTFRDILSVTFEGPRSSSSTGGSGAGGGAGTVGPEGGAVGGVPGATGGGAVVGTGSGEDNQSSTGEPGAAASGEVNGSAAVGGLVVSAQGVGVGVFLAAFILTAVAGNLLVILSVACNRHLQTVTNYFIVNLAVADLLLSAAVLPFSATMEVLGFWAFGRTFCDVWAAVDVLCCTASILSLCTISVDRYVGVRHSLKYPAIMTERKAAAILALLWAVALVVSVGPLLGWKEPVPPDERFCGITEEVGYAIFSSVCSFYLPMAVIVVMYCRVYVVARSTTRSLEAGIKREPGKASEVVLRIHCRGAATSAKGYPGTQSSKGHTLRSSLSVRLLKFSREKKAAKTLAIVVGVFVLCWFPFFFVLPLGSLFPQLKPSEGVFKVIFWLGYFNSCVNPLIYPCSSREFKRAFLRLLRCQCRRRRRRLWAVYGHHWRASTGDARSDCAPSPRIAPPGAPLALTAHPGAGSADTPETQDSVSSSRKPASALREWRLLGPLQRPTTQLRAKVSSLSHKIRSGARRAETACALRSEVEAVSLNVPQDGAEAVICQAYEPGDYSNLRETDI
Method: a) The α-adrenergic blocking activity of the compounds was tested using a helically cut rat aortic strip in a Krebs-Henselheit solution at 37° C., bubbled with a mixture of 95% O2 and 5% CO2. Norepinephrine induced contractions were detected isometrically. The compounds were added in cumulative doses and the relaxing activity was expressed in per cents of the maximum norepinephrine contraction.

α-adrenergic [2] = experiment: α-adrenergic blocking activity, postdecapitation muscular contractions in rats; type: in vivo, rat; details: i.v., 4.2 g/kg (so in the source), 30 minutes prior to decapitation
Method: b) The α-adrenergic blocking activity of compounds VUFB 17951 and VUFB 17959 was also shown in the test of influencing the postdecapitation muscular contractions in rats. The test compounds were administered intravenously in the dose of 4.6 mg/kg for VUFB 17951 and […] for VUFB 17959.

calcium channel = target: T2, calcium channel (Rattus norvegicus, UniProt P22002); experiment: Calcium channel blocking activity, K+ depolarization-induced contraction of helically cut rat aortic strip; details: Krebs-Henselheit solution, 37° C., cumulative doses, read-out: IC50 (50% decrease of contraction of the aortic strip)
T2 construct: helically cut rat aortic strip; from tissue; host or cells: rat aorta (helically cut strip)
Method: The calcium channel blocking activity of the compounds was tested using a helically cut rat aortic strip in Krebs-Henselheit solution at 37° C., bubbled with a mixture of 95% O2 and 5% CO2. The isometrically registered contractions were induced by K^(+). depolarization. The test compounds were applied in a cumulative doses and the vasodilating activity thereof was expressed in calculated concentration of the test compound, causing 50% decrease of contraction of the aortic strip (IC50).

blood pressure [3] = experiment: Hypotensive activity, conscious monkeys; type: in vivo, Macaca mulatta
Method: c) The blood pressure of conscious monkeys (Macaca mulatta) was measured non-invasively on the arm. The average decrease in systolic (SBP) and diastolic (DBP) blood pressure after intravenous and oral administration was expressed in per cents of the starting blood pressure.

blood pressure [4] = experiment: Hypotensive activity, pentobarbital anaesthesized rabbits; type: in vivo, rabbit
Text: a) The blood pressure of pentobarbital anaesthesized rabbits was registered invasively in arteria femoralis. The average decrease in systolic (SBP) and diastolic (DBP) blood pressure expressed in per cents of the starting blood pressure level after intravenous and oral administration is shown in Tables 3 and 4.

intraocular pressure = experiment: Effect on the intraocular pressure; type: in vivo, rabbit; details: rabbits, topical intraocular administration
[5] = p.o., 10.0 mg/kg, value 1 of 5 (heads 30/60/120/180 min)
[6] = p.o., 10.0 mg/kg, value 2 of 5 (heads 30/60/120/180 min)
[7] = p.o., 10.0 mg/kg, value 3 of 5 (heads 30/60/120/180 min)
[8] = p.o., 10.0 mg/kg, value 4 of 5 (heads 30/60/120/180 min)
[9] = p.o., 10.0 mg/kg, value 5 of 5 (heads 30/60/120/180 min)
[10] = p.o., 50.0 mg/kg, value 1 of 5 (heads 30/60/120/180 min)
[11] = p.o., 50.0 mg/kg, value 2 of 5 (heads 30/60/120/180 min)
[12] = p.o., 50.0 mg/kg, value 3 of 5 (heads 30/60/120/180 min)
[13] = p.o., 50.0 mg/kg, value 4 of 5 (heads 30/60/120/180 min)
[14] = p.o., 50.0 mg/kg, value 5 of 5 (heads 30/60/120/180 min)

T2 sequence (P22002 whole entry): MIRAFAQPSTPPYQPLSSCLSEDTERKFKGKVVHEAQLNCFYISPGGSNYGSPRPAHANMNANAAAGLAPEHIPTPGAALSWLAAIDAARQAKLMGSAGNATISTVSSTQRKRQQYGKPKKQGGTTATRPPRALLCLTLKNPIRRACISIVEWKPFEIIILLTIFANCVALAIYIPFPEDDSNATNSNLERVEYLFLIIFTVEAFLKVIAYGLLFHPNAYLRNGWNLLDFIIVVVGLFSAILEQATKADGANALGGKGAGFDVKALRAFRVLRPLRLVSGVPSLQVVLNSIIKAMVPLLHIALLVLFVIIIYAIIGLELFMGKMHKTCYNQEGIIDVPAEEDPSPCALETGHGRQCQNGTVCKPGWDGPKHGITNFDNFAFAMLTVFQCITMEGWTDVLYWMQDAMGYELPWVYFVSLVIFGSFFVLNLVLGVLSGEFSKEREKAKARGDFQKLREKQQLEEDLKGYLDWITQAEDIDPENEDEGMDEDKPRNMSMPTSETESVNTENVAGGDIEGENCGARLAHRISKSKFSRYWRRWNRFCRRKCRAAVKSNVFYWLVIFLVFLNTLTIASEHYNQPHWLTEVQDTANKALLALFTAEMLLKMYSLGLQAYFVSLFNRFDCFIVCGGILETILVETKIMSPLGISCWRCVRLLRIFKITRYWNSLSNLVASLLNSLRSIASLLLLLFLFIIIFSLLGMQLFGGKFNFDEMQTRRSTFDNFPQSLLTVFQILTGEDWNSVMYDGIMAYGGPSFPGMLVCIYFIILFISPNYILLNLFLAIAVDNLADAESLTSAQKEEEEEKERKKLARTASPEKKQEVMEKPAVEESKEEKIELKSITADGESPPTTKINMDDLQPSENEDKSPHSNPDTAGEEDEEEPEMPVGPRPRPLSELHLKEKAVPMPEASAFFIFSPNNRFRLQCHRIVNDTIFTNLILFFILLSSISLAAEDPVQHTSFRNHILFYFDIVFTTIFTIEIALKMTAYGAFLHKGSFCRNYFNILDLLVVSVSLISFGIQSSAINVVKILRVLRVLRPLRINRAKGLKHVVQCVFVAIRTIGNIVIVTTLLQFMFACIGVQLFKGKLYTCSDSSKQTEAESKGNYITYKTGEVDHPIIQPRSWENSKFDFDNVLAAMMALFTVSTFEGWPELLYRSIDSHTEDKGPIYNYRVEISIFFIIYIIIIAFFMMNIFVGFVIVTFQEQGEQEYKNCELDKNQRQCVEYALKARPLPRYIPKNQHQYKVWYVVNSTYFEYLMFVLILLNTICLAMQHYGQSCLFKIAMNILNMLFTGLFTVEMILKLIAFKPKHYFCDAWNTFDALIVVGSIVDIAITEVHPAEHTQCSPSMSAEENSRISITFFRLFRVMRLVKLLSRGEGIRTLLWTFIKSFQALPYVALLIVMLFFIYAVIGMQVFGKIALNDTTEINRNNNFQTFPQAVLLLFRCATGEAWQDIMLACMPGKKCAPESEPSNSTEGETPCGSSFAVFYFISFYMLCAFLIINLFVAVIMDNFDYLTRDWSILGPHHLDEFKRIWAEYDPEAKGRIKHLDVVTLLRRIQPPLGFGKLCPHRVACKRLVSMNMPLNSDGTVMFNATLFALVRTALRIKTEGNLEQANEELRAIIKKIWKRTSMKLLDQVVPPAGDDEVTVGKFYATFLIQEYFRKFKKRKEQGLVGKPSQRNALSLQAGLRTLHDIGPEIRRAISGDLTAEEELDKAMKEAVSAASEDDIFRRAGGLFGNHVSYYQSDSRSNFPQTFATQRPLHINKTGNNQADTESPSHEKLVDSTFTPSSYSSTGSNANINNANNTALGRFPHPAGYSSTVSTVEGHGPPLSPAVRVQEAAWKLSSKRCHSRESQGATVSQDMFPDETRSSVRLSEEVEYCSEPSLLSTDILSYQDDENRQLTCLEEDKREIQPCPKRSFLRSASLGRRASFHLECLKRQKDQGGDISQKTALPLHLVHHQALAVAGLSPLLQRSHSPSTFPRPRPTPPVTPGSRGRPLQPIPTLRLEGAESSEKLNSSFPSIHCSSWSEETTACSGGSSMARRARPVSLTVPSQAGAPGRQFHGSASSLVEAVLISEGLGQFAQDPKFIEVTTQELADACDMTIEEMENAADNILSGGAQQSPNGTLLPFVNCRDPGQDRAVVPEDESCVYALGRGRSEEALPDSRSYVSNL
T2 sequence (P54290 25-1091 partner): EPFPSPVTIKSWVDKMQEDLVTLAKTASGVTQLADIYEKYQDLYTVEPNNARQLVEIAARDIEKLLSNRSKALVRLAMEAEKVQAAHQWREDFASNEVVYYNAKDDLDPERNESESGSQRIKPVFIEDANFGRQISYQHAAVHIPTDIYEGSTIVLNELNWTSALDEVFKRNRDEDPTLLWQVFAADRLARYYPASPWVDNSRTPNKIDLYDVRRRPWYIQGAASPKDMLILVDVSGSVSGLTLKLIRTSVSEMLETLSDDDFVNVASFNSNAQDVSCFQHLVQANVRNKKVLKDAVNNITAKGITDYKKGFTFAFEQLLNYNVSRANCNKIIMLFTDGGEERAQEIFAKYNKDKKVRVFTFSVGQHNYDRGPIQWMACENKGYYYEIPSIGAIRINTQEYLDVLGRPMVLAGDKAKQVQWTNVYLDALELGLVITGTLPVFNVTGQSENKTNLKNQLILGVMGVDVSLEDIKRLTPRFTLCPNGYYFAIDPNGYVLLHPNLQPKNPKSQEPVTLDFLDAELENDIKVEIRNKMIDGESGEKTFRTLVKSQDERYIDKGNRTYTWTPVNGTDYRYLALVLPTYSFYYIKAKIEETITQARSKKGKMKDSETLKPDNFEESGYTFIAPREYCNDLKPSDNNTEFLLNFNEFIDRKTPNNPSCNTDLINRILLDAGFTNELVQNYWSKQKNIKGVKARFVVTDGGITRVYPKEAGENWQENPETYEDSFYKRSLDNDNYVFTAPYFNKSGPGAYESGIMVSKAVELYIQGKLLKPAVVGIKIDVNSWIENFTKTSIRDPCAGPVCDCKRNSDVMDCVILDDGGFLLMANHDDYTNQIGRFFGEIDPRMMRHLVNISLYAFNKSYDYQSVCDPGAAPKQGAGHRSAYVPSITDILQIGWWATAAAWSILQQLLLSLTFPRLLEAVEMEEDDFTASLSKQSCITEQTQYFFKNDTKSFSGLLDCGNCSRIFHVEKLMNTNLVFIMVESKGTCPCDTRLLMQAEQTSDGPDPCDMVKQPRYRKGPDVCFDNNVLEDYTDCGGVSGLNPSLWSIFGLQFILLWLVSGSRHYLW

Cc1ccccc1C(C#N)(CCCNCC1COc2ccccc2O1)C(C)C (racemic) [VUFB 17959, 5-(2,3-dihydro-1,4-benzodioxin-2-ylmethylamino)-2-isopropyl-2-(2-methylphenyl) valeronitrile]
IC50 (α-adrenergic [1]): 25 µM | decrease in number of postdecapitation contractions (α-adrenergic [2]): highly significant decrease in number of postdecapitation contractions | IC50 (calcium channel): 16 µM | decrease in diastolic blood pressure (DBP) (blood pressure [3]; i.v., 0.25 mg/kg, 1 min): -4 per cents | decrease in systolic blood pressure (SBP) (blood pressure [3]; i.v., 0.25 mg/kg, 1 min): -1 per cents | decrease in diastolic blood pressure (DBP) (blood pressure [3]; i.v., 0.25 mg/kg, 5 min): -16 per cents | decrease in systolic blood pressure (SBP) (blood pressure [3]; i.v., 0.25 mg/kg, 5 min): -12 per cents | decrease in diastolic blood pressure (DBP) (blood pressure [3]; i.v., 0.25 mg/kg, 30 min): -24 per cents | decrease in systolic blood pressure (SBP) (blood pressure [3]; i.v., 0.25 mg/kg, 30 min): -22 per cents | decrease in diastolic blood pressure (DBP) (blood pressure [3]; i.v., 0.25 mg/kg, 60 min): -20 per cents | decrease in systolic blood pressure (SBP) (blood pressure [3]; i.v., 0.25 mg/kg, 60 min): -17 per cents | decrease in diastolic blood pressure (DBP) (blood pressure [3]; i.v., 0.25 mg/kg, 180 min): -7 per cents | decrease in systolic blood pressure (SBP) (blood pressure [3]; i.v., 0.25 mg/kg, 180 min): -5 per cents | decrease in diastolic blood pressure (DBP) (blood pressure [3]; i.v., 1.0 mg/kg, 1 min): -34 per cents | decrease in systolic blood pressure (SBP) (blood pressure [3]; i.v., 1.0 mg/kg, 1 min): -28 per cents | decrease in diastolic blood pressure (DBP) (blood pressure [3]; i.v., 1.0 mg/kg, 5 min): -38 per cents | decrease in systolic blood pressure (SBP) (blood pressure [3]; i.v., 1.0 mg/kg, 5 min): -31 per cents | decrease in diastolic blood pressure (DBP) (blood pressure [3]; i.v., 1.0 mg/kg, 30 min): -42 per cents | decrease in systolic blood pressure (SBP) (blood pressure [3]; i.v., 1.0 mg/kg, 30 min): -31 per cents | decrease in diastolic blood pressure (DBP) (blood pressure [3]; i.v., 1.0 mg/kg, 60 min): -27 per cents | decrease in systolic blood pressure (SBP) (blood pressure [3]; i.v., 1.0 mg/kg, 60 min): -24 per cents | decrease in diastolic blood pressure (DBP) (blood pressure [3]; i.v., 1.0 mg/kg, 180 min): -14 per cents | decrease in systolic blood pressure (SBP) (blood pressure [3]; i.v., 1.0 mg/kg, 180 min): -8 per cents | decrease in diastolic blood pressure (DBP) (blood pressure [3]; p.o., 10.0 mg/kg, 5-6 hours): -10 per cents | decrease in systolic blood pressure (SBP) (blood pressure [3]; p.o., 10.0 mg/kg, 5-6 hours): -11 per cents | decrease in diastolic blood pressure (DBP) (blood pressure [3]; p.o., 10.0 mg/kg, 0.5 hours): -16 per cents | decrease in systolic blood pressure (SBP) (blood pressure [3]; p.o., 10.0 mg/kg, 0.5 hours): -20 per cents | decrease in diastolic blood pressure (DBP) (blood pressure [3]; p.o., 10.0 mg/kg, 1 hours): -15 per cents | decrease in systolic blood pressure (SBP) (blood pressure [3]; p.o., 10.0 mg/kg, 1 hours): -15 per cents | decrease in diastolic blood pressure (DBP) (blood pressure [3]; p.o., 10.0 mg/kg, 3 hours): -16 per cents | decrease in systolic blood pressure (SBP) (blood pressure [3]; p.o., 10.0 mg/kg, 3 hours): -17 per cents | decrease in diastolic blood pressure (DBP) (blood pressure [3]; p.o., 10.0 mg/kg, 24 hours): +5 per cents | decrease in systolic blood pressure (SBP) (blood pressure [3]; p.o., 10.0 mg/kg, 24 hours): +1 per cents | decrease in diastolic blood pressure (DBP) (blood pressure [4]; i.v., 1.0 mg/kg, 1 min): -51 per cents | decrease in systolic blood pressure (SBP) (blood pressure [4]; i.v., 1.0 mg/kg, 1 min): -47 per cents | decrease in diastolic blood pressure (DBP) (blood pressure [4]; i.v., 1.0 mg/kg, 5 min): -22 per cents | decrease in systolic blood pressure (SBP) (blood pressure [4]; i.v., 1.0 mg/kg, 5 min): -23 per cents | decrease in diastolic blood pressure (DBP) (blood pressure [4]; i.v., 1.0 mg/kg, 30 min): -21 per cents | decrease in systolic blood pressure (SBP) (blood pressure [4]; i.v., 1.0 mg/kg, 30 min): -22 per cents | decrease in diastolic blood pressure (DBP) (blood pressure [4]; i.v., 1.0 mg/kg, 60 min): -25 per cents | decrease in systolic blood pressure (SBP) (blood pressure [4]; i.v., 1.0 mg/kg, 60 min): -14 per cents | decrease in diastolic blood pressure (DBP) (blood pressure [4]; i.v., 1.0 mg/kg, 180 min): -18 per cents | decrease in systolic blood pressure (SBP) (blood pressure [4]; i.v., 1.0 mg/kg, 180 min): -8 per cents | decrease in diastolic blood pressure (DBP) (blood pressure [4]; i.v., 5.0 mg/kg, 1 min): -69 per cents | decrease in systolic blood pressure (SBP) (blood pressure [4]; i.v., 5.0 mg/kg, 1 min): -60 per cents | decrease in diastolic blood pressure (DBP) (blood pressure [4]; i.v., 5.0 mg/kg, 5 min): -39 per cents | decrease in systolic blood pressure (SBP) (blood pressure [4]; i.v., 5.0 mg/kg, 5 min): -35 per cents | decrease in diastolic blood pressure (DBP) (blood pressure [4]; i.v., 5.0 mg/kg, 30 min): -31 per cents | decrease in systolic blood pressure (SBP) (blood pressure [4]; i.v., 5.0 mg/kg, 30 min): -26 per cents | decrease in diastolic blood pressure (DBP) (blood pressure [4]; i.v., 5.0 mg/kg, 60 min): -29 per cents | decrease in systolic blood pressure (SBP) (blood pressure [4]; i.v., 5.0 mg/kg, 60 min): -27 per cents | decrease in diastolic blood pressure (DBP) (blood pressure [4]; i.v., 5.0 mg/kg, 180 min): -33 per cents | decrease in systolic blood pressure (SBP) (blood pressure [4]; i.v., 5.0 mg/kg, 180 min): -25 per cents | decrease in diastolic blood pressure (DBP) (blood pressure [4]; [5]): -2 per cents | decrease in systolic blood pressure (SBP) (blood pressure [4]; [5]): -2 per cents | decrease in diastolic blood pressure (DBP) (blood pressure [4]; [6]): 0 per cents | decrease in systolic blood pressure (SBP) (blood pressure [4]; [6]): -3 per cents | decrease in diastolic blood pressure (DBP) (blood pressure [4]; [7]): -3 per cents | decrease in systolic blood pressure (SBP) (blood pressure [4]; [7]): -4 per cents | decrease in diastolic blood pressure (DBP) (blood pressure [4]; [8]): -8 per cents | decrease in systolic blood pressure (SBP) (blood pressure [4]; [8]): -1 per cents | decrease in diastolic blood pressure (DBP) (blood pressure [4]; [9]): -10 per cents | decrease in systolic blood pressure (SBP) (blood pressure [4]; [9]): +3 per cents | decrease in diastolic blood pressure (DBP) (blood pressure [4]; [10]): -6 per cents | decrease in systolic blood pressure (SBP) (blood pressure [4]; [10]): -9 per cents | decrease in diastolic blood pressure (DBP) (blood pressure [4]; [11]): -12 per cents | decrease in systolic blood pressure (SBP) (blood pressure [4]; [11]): -18 per cents | decrease in diastolic blood pressure (DBP) (blood pressure [4]; [12]): -18 per cents | decrease in systolic blood pressure (SBP) (blood pressure [4]; [12]): -26 per cents | decrease in diastolic blood pressure (DBP) (blood pressure [4]; [13]): -18 per cents | decrease in systolic blood pressure (SBP) (blood pressure [4]; [13]): -29 per cents | decrease in diastolic blood pressure (DBP) (blood pressure [4]; [14]): -18 per cents | decrease in systolic blood pressure (SBP) (blood pressure [4]; [14]): -31 per cents | lowering of the intraocular pressure (intraocular pressure): lowered significantly the intraocular pressure
